# Source: patent US8242275B2, “Bicyclic pyrazole compounds as antibacterial agents” (Janssen Pharmaceutica NV, priority 2005, dated 2012)
# Counter-ions that a name gives are not always drawn. Like-named read-outs stand apart in the source and are kept apart here.
# Assays:
# MSSA ATCC13709 (Smith) = test: Resistant strains assay (broth microdilution MIC); assay type: cell-based; settings: Staphylococcus aureus
# Method: (§1) Compounds of the present invention were tested for activity against susceptible and resistant bacterial strains in vitro, and activity was compared to known anti-bacterial agents. Testing protocols followed NCCLS methodology for broth microdilution assays. MIC values in μg/mL are presented in Table 3 for the following strains: Column A: MSSA ATCC13709 (Smith); Column B: MSSA ATCC 29213; Column C: MRSA OC3726 (COL); Column D: MRSA OC2878.
# MSSA ATCC 29213 = test: Resistant strains assay (broth microdilution MIC); assay type: cell-based; settings: Staphylococcus aureus, read-out: MIC, Column B
# Method: as §1
# CipR MRSA OC3946 = test: Resistant strains assay (broth microdilution MIC); assay type: cell-based; settings: Staphylococcus aureus, read-out: MIC, Column E
# Method: as §1
# MIC values in μg/mL are presented in Table 4 for the following strains: Column E: CipR MRSA OC3946; Column F: CipR MRSA OC4159; Column G: CipR MRSA OC4222; Column H: CipR MRSA OC5273.
# MRSA OC2878 = test: Resistant strains assay (broth microdilution MIC); assay type: cell-based; settings: Staphylococcus aureus; MRSA OC2878; read-out: MIC, Column D
# Source text: (§2) Testing protocols followed NCCLS methodology for broth microdilution assays.
# CipR MRSA OC5273 = test: Resistant strains assay (broth microdilution MIC); assay type: cell-based; settings: Staphylococcus aureus, read-out: MIC, Column H
# Source text: as §2
# CipR MRSA OC4222 = test: Resistant strains assay (broth microdilution MIC); assay type: cell-based; settings: Staphylococcus aureus, read-out: MIC, Column G
# Source text: as §2
# MRSA OC3726 (COL) = test: Resistant strains assay (broth microdilution MIC); assay type: cell-based; settings: Staphylococcus aureus; MRSA OC3726 (COL); read-out: MIC, Column C
# Source text: as §2
# CipR MRSA OC4159 = test: Resistant strains assay (broth microdilution MIC); assay type: cell-based; settings: Staphylococcus aureus, read-out: MIC, Column F
# Source text: as §2
# E. coli DNA gyrase = target: T1, E. coli DNA gyrase (Escherichia coli, UniProt P0AES4+P0AES6); test: DNA gyrase inhibition assay (supercoiling); assay type: biochemical; settings: E. coli DNA gyrase supercoiling, visual inspection of gels; read-out: DNA Gyrase IC50 (converted)
# T1 construct: purchased John Innes Enterprises Ltd. (John Innes Centre, UK)
# In short: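 Relaxed pBR322 (250 ng) was supercoiled by 0.2 unit gyrase in Tris-HCl pH 7.5, KCl, MgCl2, DTT, spermidine, 1 mM ATP, glycerol, albumin, 0.5% DMSO final, 30 min at 37° C. Products were resolved on 1.0% agarose gels with ethidium bromide staining.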
# E. coli topoisomerase IV = target: T2, E. coli topoisomerase IV (Escherichia coli, UniProt P0AFI2+P20083); test: Topoisomerase IV inhibition assay (relaxation); assay type: biochemical; settings: E. coli topoisomerase IV relaxation, visual inspection of gels; read-out: Topoisomerase IV IC50 (converted)
# T2 construct: purchased John Innes Enterprises Ltd. (John Innes Centre, UK)
# T2 sequence (P0AFI2 whole entry): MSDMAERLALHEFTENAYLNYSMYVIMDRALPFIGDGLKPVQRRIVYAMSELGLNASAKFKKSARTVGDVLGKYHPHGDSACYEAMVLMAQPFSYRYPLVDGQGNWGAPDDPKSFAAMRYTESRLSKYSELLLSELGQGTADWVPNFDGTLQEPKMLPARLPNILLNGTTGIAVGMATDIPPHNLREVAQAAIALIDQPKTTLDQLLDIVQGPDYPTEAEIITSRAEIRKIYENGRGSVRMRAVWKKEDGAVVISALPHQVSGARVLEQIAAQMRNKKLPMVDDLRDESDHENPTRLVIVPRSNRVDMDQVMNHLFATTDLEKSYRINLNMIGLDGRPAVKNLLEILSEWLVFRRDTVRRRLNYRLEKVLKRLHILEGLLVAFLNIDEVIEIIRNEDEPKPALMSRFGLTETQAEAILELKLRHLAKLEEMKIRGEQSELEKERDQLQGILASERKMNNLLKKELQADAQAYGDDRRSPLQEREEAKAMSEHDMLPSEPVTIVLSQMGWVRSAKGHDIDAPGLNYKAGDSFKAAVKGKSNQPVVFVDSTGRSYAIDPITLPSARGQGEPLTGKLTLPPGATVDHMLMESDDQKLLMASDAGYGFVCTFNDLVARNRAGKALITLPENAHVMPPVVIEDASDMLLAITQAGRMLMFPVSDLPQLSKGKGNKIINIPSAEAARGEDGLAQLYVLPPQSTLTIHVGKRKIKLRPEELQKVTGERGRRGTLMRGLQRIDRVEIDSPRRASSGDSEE
# T2 sequence (P20083 whole entry): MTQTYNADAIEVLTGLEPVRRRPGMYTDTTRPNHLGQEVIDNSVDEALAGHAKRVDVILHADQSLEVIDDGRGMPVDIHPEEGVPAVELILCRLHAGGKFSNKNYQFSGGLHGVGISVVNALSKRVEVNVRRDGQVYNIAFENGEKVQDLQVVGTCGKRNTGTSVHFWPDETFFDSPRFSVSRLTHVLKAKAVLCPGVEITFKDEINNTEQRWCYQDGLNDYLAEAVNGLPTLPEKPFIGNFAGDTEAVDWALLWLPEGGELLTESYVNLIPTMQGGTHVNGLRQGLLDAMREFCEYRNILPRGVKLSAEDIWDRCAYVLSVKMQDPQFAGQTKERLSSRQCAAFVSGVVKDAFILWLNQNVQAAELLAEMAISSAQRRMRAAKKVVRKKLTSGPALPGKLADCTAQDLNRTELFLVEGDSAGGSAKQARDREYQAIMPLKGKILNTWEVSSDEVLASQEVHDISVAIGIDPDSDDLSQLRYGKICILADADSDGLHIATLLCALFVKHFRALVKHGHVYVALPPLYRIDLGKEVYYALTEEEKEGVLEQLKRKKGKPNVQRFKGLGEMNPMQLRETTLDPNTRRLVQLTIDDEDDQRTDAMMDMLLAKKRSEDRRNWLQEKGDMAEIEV
# In short: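 Relaxation of 300 ng supercoiled pBR322 by 0.9 unit enzyme in HEPES-KOH pH 7.6 with potassium glutamate, Mg(OAc)2, DTT, tRNA, 2 mM ATP and BSA; final DMSO 0.5%. Reactions ran 45 min at 37° C. Products resolved on 1.0% agarose gels and stained with ethidium bromide.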
# [1] = tested on: E. coli KL-16 (GSC strain 4245); test: In vitro antibacterial activity (MIC assay), broth microdilution; assay type: cell-based; settings: Escherichia coli
# In short: (§3)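 Broth microdilution per NCCLS M7-A5: 11-point 2-fold compound dilutions from DMSO stocks, inoculum about 5×10^5 CFU/mL, incubation 35° C for 16–24 h. MIC scored visually against no-compound growth controls, in μg/mL.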
# S. pneumoniae ATCC49619 = test: as above; assay type: cell-based
# In short: as §3
# S. aureus ATCC13709 = test: as above; assay type: cell-based
# In short: as §3
# E. coli ATCC25922 = test: as above; assay type: cell-based; settings: Escherichia coli
# In short: as §3
# [2] = Streptococcus pneumoniae, ATCC49619; read-out: S. pneumoniae ATCC49619 MIC
# [3] = Staphylococcus aureus, ATCC13709; read-out: S. aureus ATCC13709 MIC
# [4] = obtained with E. coli ATCC25922, read-out: E. coli MIC, data marked (*)
Structure (SMILES),MIC (CipR MRSA OC4222; CipR MRSA OC4222) [µg/mL],MIC (S. pneumoniae ATCC49619; [2]) [µg/mL],MIC (S. aureus ATCC13709; [3]) [µg/mL],MIC (E. coli ATCC25922; [4]) [µg/mL],other results
"COc1ccc2nccc(-n3cc4c(n3)CCC(NC/C=C/c3ccccc3)C4)c2n1 (stereo not shown) [Example 46, [2-(6-Methoxy-[1,5]naphthyridin-4-yl)-4,5,6,7-tetrahydro-2H-indazol-5-yl]-(3-phenyl-allyl)-amine]",0.062,< 0.125,0.06,,MIC (MSSA ATCC13709 (Smith)): 0.062 µg/mL; MIC (MSSA ATCC 29213): 8 µg/mL; MIC (CipR MRSA OC3946; CipR MRSA OC3946): 0.062 µg/mL; MIC (MRSA OC2878): 0.125 µg/mL; MIC (CipR MRSA OC5273): 0.125 µg/mL; MIC (MRSA OC3726 (COL)): 0.25 µg/mL; MIC (CipR MRSA OC4159): 0.062 µg/mL; IC50 (E. coli DNA gyrase): 292 nM; IC50 (E. coli topoisomerase IV): < 36.5 nM; MIC [1]: 16 µg/mL
"COc1ccc2nccc(-n3cc4c(n3)CCC(NCc3ccc5c(c3)OCCO5)C4)c2c1 (stereo not shown) [Example 50, (2,3-Dihydro-benzo[1,4]dioxin-6-ylmethyl)-[2-(6-methoxy-quinolin-4-yl)-4,5,6,7-tetrahydro-2H-indazol-5-yl]-amine]",16,1,0.5,,MIC (MSSA ATCC13709 (Smith)): 0.5 µg/mL; MIC (MSSA ATCC 29213): 16 µg/mL; MIC (CipR MRSA OC3946; CipR MRSA OC3946): 0.5 µg/mL; MIC (MRSA OC2878): 0.5 µg/mL; MIC (CipR MRSA OC5273): 1 µg/mL; MIC (MRSA OC3726 (COL)): 1 µg/mL; MIC (CipR MRSA OC4159): 16 µg/mL; IC50 (E. coli DNA gyrase): 4520 nM; IC50 (E. coli topoisomerase IV): 136 nM; MIC [1]: 128 µg/mL
"COc1ccc2nccc(-n3cc4c(n3)CCC(NCc3ccc5c(c3)NC(=O)CS5)C4)c2c1 (stereo not shown) [Example 52, 6-{[2-(6-Methoxy-quinolin-4-yl)-4,5,6,7-tetrahydro-2H-indazol-5-ylamino]-methyl}-4H-benzo[1,4]thiazin-3-one]",,1,0.25,,MIC (MSSA ATCC13709 (Smith)): 0.25 µg/mL; MIC (MSSA ATCC 29213): 1 µg/mL; MIC (CipR MRSA OC3946; MRSA): 0.125 µg/mL; MIC (MRSA OC2878): 0.5 µg/mL; MIC (CipR MRSA OC5273): 0.5 µg/mL; MIC (CipR MRSA OC4222; MRSA): 0.125 µg/mL; MIC (MRSA OC3726 (COL)): 0.5 µg/mL; MIC (CipR MRSA OC4159): 0.25 µg/mL; IC50 (E. coli DNA gyrase): 265 nM; IC50 (E. coli topoisomerase IV): 63.6 nM; MIC [1]: 2 µg/mL
"COc1ccc2nccc(-n3cc4c(n3)CCC(NCc3cc5c(cc3F)SCCN5)C4)c2n1 (stereo not shown) [Example 107, (7-Fluoro-3,4-dihydro-2H-benzo[1,4]thiazin-6-ylmethyl)-[2-(6-methoxy-[1,5]naphthyridin-4-yl)-4,5,6,7-tetrahydro-2H-indazol-5-yl]-amine]",0.5,2,0.25,8,
"COc1ccc2nccc(-n3cc4c(n3)CCC(NC(=O)c3ccc5c(c3)NC(=O)C(C)(C)S5)C4)c2c1 (stereo not shown) [Example 129, 2,2-Dimethyl-3-oxo-3,4-dihydro-2H-benzo[1,4]thiazine-6-carboxylic acid [2-(6-methoxy-quinolin-4-yl)-4,5,6,7-tetrahydro-2H-indazol-5-yl]-amide]",1,4,1,> 16,
"COc1ccc2nccc(-n3ncc4c3CCC(NC(=O)c3cc5c(cc3C)SCC(=O)N5)C4)c2c1 (stereo not shown) [Example 132, 7-Methyl-3-oxo-3,4-dihydro-2H-benzo[1,4]thiazine-6-carboxylic acid [1-(6-methoxy-quinolin-4-yl)-4,5,6,7-tetrahydro-1H-indazol-5-yl]-amide]",2,> 16,2,> 16,
"COc1ccc2nccc(-n3cc4c(n3)CCC(NCCOc3cc(F)cc(F)c3)C4)c2n1 (stereo not shown) [Example 134, [2-(3,5-Difluoro-phenoxy)-ethyl]-[2-(6-methoxy-[1,5]naphthyridin-4-yl)-4,5,6,7-tetrahydro-2H-indazol-5-yl]-amine]",0.5,4,1,> 16,
"COc1ccc2nccc(-n3cc4c(n3)CCC(NC(=O)c3cc5c(cc3C(=O)O)SCC(=O)N5)C4)c2c1 (stereo not shown) [Example 136, 6-[2-(6-Methoxy-quinolin-4-yl)-4,5,6,7-tetrahydro-2H-indazol-5-ylcarbamoyl]-3-oxo-3,4-dihydro-2H-benzo[1,4]thiazine-7-carboxylic acid, potassium salt]",,,,,"MIC (CipR MRSA OC4222; MRSA): 2 µg/mL; MIC (S. pneumoniae ATCC49619; Streptococcus pneumoniae, ATCC49619, read-out: S. pneumoniae ATCC49619 MIC): > 16 µg/mL; MIC (S. aureus ATCC13709; Staphylococcus aureus, ATCC13709, read-out: S. aureus ATCC13709 MIC): 1 µg/mL; MIC (E. coli ATCC25922; ATCC25922, read-out: E. coli MIC, data marked (*)): > 16 µg/mL"

# Continued, in another order:
MIC (CipR MRSA OC4222; CipR MRSA OC4222) [µg/mL],MIC (S. pneumoniae ATCC49619; [2]) [µg/mL],MIC (S. aureus ATCC13709; [3]) [µg/mL],MIC (E. coli ATCC25922; [4]) [µg/mL],Structure (SMILES),other results
2,16,2,> 16,"COc1ccc2nccc(-n3cc4c(n3)CCC(NC(=O)c3cc5c(cc3OC)SCC(=O)N5)C4)c2n1 (stereo not shown) [Example 130, 7-Methoxy-3-oxo-3,4-dihydro-2H-benzo[1,4]thiazine-6-carboxylic acid [2-(6-methoxy-[1,5]naphthyridin-4-yl)-4,5,6,7-tetrahydro-2H-indazol-5-yl]-amide]",
0.25,> 16,0.25,> 16,"COc1ccc2nccc(-n3cc4c(n3)CCC(NC(=O)c3cc5c(cc3C)SCC(=O)N5)C4)c2n1 (stereo not shown) [Example 133, 7-Methyl-3-oxo-3,4-dihydro-2H-benzo[1,4]thiazine-6-carboxylic acid [2-(6-methoxy-[1,5]naphthyridin-4-yl)-4,5,6,7-tetrahydro-2H-indazol-5-yl]-amide]",
2,> 16,2,> 16,"CCOC(=O)c1cc2c(cc1C(=O)NC1CCc3nn(-c4ccnc5ccc(OC)cc45)cc3C1)NC(=O)CS2 (stereo not shown) [Example 135, 6-[2-(6-Methoxy-quinolin-4-yl)-4,5,6,7-tetrahydro-2H-indazol-5-ylcarbamoyl]-3-oxo-3,4-dihydro-2H-benzo[1,4]thiazine-7-carboxylic acid ethyl ester]",
0.5,> 16,0.5,> 16,"CCOC(=O)c1cc2c(cc1C(=O)NC1CCc3nn(-c4ccnc5ccc(OC)nc45)cc3C1)NC(=O)CS2 (stereo not shown) [Example 137, 6-[2-(6-Methoxy-[1,5]naphthyridin-4-yl)-4,5,6,7-tetrahydro-2H-indazol-5-ylcarbamoyl]-3-oxo-3,4-dihydro-2H-benzo[1,4]thiazine-7-carboxylic acid ethyl ester]",
0.5,16,0.5,> 16,"COc1ccc2nccc(-n3cc4c(n3)CCC(NC(=O)c3cc5c(cc3C(=O)O)SCC(=O)N5)C4)c2n1 (stereo not shown) [Example 138, 6-[2-(6-Methoxy-[1,5]naphthyridin-4-yl)-4,5,6,7-tetrahydro-2H-indazol-5-ylcarbamoyl]-3-oxo-3,4-dihydro-2H-benzo[1,4]thiazine-7-carboxylic acid]",
